The source of these data is US6506772B1, “Substituted [1,2,4]triazolo[1,5a]pyridine derivatives with activity as adenosine receptor ligands” (Hoffmann-La Roche Inc., priority 2000, dated 2003).

pKi: −log10 of the molar value.

Assay [1] addresses T1, human adenosine A2A receptor (Homo sapiens, UniProt P29274).
T1 construct: expressed in transfected cells; host or cells: CHO cells, Semliki Forest virus expression system; membrane preparation
The assay is described as follows: Human adenosine A2A receptor [3H]-SCH-58261 binding assay. Conditions: for pKi: affinity to human adenosine A2A receptor, read-out: Ki HA2A; for selectivity (A1/A2a): calculated ratio of the affinity to the HA1 receptor to the HA2a receptor.

Assay [2] addresses T2, HA1 adenosine receptor (Homo sapiens, UniProt P30542).
T2 sequence (P30542 1-326): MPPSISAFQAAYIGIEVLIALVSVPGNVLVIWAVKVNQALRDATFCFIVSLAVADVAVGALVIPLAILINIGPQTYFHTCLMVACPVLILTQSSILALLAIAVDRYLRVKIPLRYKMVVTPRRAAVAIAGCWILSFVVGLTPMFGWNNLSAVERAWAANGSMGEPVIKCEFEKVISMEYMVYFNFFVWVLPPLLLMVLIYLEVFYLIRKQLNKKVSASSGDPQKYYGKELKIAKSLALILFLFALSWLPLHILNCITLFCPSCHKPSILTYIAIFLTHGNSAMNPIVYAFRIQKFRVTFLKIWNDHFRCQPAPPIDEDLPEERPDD
Put plainly: Human adenosine A1 receptor affinity (Ki hA1). The conditions noted are these: affinity to human adenosine A1 receptor. The assay is classed as binding.

T1 sequence (P29274 whole entry): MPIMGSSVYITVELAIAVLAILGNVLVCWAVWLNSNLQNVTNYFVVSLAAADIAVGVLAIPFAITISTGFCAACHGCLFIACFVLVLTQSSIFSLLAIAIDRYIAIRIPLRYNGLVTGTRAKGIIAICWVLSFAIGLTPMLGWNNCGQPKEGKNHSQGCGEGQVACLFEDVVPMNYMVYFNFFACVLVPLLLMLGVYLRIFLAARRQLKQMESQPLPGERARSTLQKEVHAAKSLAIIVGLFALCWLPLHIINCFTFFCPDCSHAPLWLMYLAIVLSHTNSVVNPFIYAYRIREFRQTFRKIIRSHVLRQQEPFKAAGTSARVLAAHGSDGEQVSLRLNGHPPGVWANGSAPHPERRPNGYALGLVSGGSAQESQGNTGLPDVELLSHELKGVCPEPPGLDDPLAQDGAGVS

For orientation: pKi means the Ki on a negative log10 scale, so that one unit is a factor of ten. As to `C=CCN(CC=C)C(=O)c1cc(N)n2nc(-c3nccs3)nc2c1` [Example 290, 5-Amino-2-thiazol-2-yl-[1,2,4]triazolo[1,5-a]pyridine-7-carboxylic acid diallylamide], in assay [1], the pKi is 7.24 and the “selectivity (A1/A2a)” value is 22.2. This compound gave a pKi in assay [2] of 5.89.

On to `CCCCN(CC)C(=O)c1cc(N)n2nc(-c3nccs3)nc2c1` [Example 291, 5-Amino-2-thiazol-2-yl-[1,2,4]triazolo[1,5-a]pyridine-7-carboxylic acid butyl-ethyl-amide], for which, in assay [1], the pKi was 7.05 and the “selectivity (A1/A2a)” value is recorded as 17.2. The same compound gave a pKi in assay [2] of 5.81.

Take `CCCCCN(C)C(=O)c1cc(N)n2nc(-c3nccs3)nc2c1` [Example 292, 5-Amino-2-thiazol-2-yl-[1,2,4]triazolo[1,5-a]pyridine-7-carboxylic acid methyl-pentyl-amide]: in assay [1], the pKi is 6.97 and the “selectivity (A1/A2a)” value is 13.9. Further, the pKi in assay [2] is 5.82.

Consider `CN(C)C(=O)c1cc(N)n2nc(-c3ccc(Br)o3)nc2c1` [Example 293, 5-Amino-2-(5-bromo-furan-2-yl)-[1,2,4]triazolo[1,5-a]pyridine-7-carboxylic acid dimethylamide], for which the pKi in assay [1] was 7.62; in assay [2] it was 6.28. Also, the “selectivity (A1/A2a)” value in assay [1] is reported as 21.9.

As for `Nc1cc(C(=O)N2CC=CCC2)cc2nc(-c3ccc(Br)o3)nn12` [Example 294, [5-Amino-2-(5-bromo-furan-2-yl)-[1,2,4]triazolo[1,5-a]pyridin-7-yl]-(3,6-dihydro-2H-pyridin-1-yl)-methanone], the pKi in assay [1] was 8.39; in assay [2], 6.84. In assay [1], the “selectivity (A1/A2a)” value is given as 35.0.

On to `Nc1cc(C(=O)N2CCCCCC2)cc2nc(-c3ccc(Br)o3)nn12` [Example 296], for which, in assay [1], the pKi is 8.77 and the “selectivity (A1/A2a)” value is 31.0. In assay [2], this compound showed a pKi of 7.28.

As to `CCCN(CC1CC1)C(=O)c1cc(N)n2nc(-c3ccc(Br)o3)nc2c1` [Example 298, 5-Amino-2-(5-bromo-furan-2-yl)-[1,2,4]triazolo[1,5-a]pyridine-7-carboxylic acid cyclopropylmethyl-propyl-amide], in assay [1], the pKi was 8.66 and the “selectivity (A1/A2a)” value is 42.7. Moreover, the pKi in assay [2] is 7.03.

Turning to `CCN1CCN(C(=O)c2cc(N)n3nc(-c4ccc(Br)o4)nc3c2)CC1` [Example 299, [5-Amino-2-(5-bromo-furan-2-yl)-[1,2,4]triazolo[1,5-a]pyridin-7-yl]-(4-ethyl-piperazin-1-yl)-methanone], in assay [1], the pKi was 6.91 and the “selectivity (A1/A2a)” value is reported as 13.0. Besides, in assay [2], the pKi is 5.80.

As for `NC(=O)C1CCN(C(=O)c2cc(N)n3nc(-c4ccc(Br)o4)nc3c2)CC1` [Example 300, 1-[5-Amino-2-(5-bromo-furan-2-yl)-[1,2,4]triazolo[1,5-a]pyridine-7-carbonyl]-piperidine-4-carboxylic acid amide], in assay [1], the pKi is 7.13 and the “selectivity (A1/A2a)” value is recorded as 5.2. In assay [2], this compound had a pKi of 6.41.

For the compound `CC1CCC(C)N1C(=O)c1cc(N)n2nc(-c3nccs3)nc2c1` (stereo not drawn) [Example 301], the pKi is 7.21 in assay [1] and 5.72 in assay [2]. In addition, the “selectivity (A1/A2a)” value in assay [1] is given as 30.5.

Regarding `CC1C=CC(C)N1C(=O)c1cc(N)n2nc(-c3nccs3)nc2c1` (stereo not drawn) [Example 302], in assay [1], the pKi is 6.98 and the “selectivity (A1/A2a)” value was 19.4. The compound also had a negative-log Ki (pKi) in assay [2] of 5.69.

On to `CC1CCCC(C)N1C(=O)c1cc(N)n2nc(-c3ccc(Br)o3)nc2c1` (stereo not drawn) [Example 303, [5-Amino-2-(5-bromo-furan-2-yl)-[1,2,4]triazolo[1,5-a]pyridin-7-yl]-(2,6-dimethyl-piperidin-1-yl)-methanone], for which, in assay [1], the pKi is 6.83 and the “selectivity (A1/A2a)” value is listed as 8.7. In assay [2], this compound had a pKi of 5.89.

With `CC1CN(C(=O)c2cc(N)n3nc(-c4ccc(Br)o4)nc3c2)CC(C)O1` (stereo not drawn) [Example 304, [5-Amino-2-(5-bromo-furan-2-yl)-[1,2,4]triazolo[1,5-a]pyridin-7-yl]-(2,6-dimethyl-morpholin-4-yl)-methanone], in assay [1], the pKi is 8.03 and the “selectivity (A1/A2a)” value is given as 41.0. Moreover, the negative-log Ki (pKi) in assay [2] was 6.42.

With `COCCN(CCOC)C(=O)c1cc(N)n2nc(-c3ccc(Br)o3)nc2c1` [Example 305, 5-Amino-2-(5-bromo-furan-2-yl)-[1,2,4]triazolo[1,5-a]pyridine-7-carboxylic acid bis-(2-methoxy-ethyl)-amide], the pKi in assay [1] was 8.28; in assay [2] it was 6.86. Further, in assay [1], the “selectivity (A1/A2a)” value was 26.8.

For the compound `CCN(Cc1ccccc1)C(=O)c1cc(N)n2nc(-c3ccc(Br)o3)nc2c1` [Example 307, 5-Amino-2-(5-bromo-furan-2-yl)-[1,2,4]triazolo[1,5-a]pyridine-7-carboxylic acid benzyl-ethyl-amide], in assay [1], the pKi is 8.77 and the “selectivity (A1/A2a)” value was 12.5. The pKi in assay [2] was 7.67.

With `CN(CCc1ccccn1)C(=O)c1cc(N)n2nc(-c3ccc(Br)o3)nc2c1` [Example 308, 5-Amino-2-(5-bromo-furan-2-yl)-[1,2,4]triazolo[1,5-a]pyridine-7-carboxylic acid methyl-(2-pyridin-2-yl-ethyl)-amide], in assay [1], the pKi is 8.01 and the “selectivity (A1/A2a)” value is on record as 47.2. For the same compound, the pKi in assay [2] was 6.33.

In the case of `CCN(CC)CCN(CC)C(=O)c1cc(N)n2nc(-c3ccc(Br)o3)nc2c1` [Example 309, 5-Amino-2-(5-bromo-furan-2-yl)-[1,2,4]triazolo[1,5-a]pyridine-7-carboxylic acid (2-diethylamino-ethyl)-ethyl-amide], in assay [1], the pKi was 7.31 and the “selectivity (A1/A2a)” value was 9.9. Moreover, the pKi in assay [2] was 6.31.

Consider `Nc1cc(C(=O)N2CCN(Cc3ccccc3)CC2)cc2nc(-c3ccc(Br)o3)nn12` [Example 310, [5-Amino-2-(5-bromo-furan-2-yl)-[1,2,4]triazolo[1,5-a]pyridin-7-yl]-(4-benzyl-piperazin-1-yl)-methanone], for which the pKi is 6.83 in assay [1] and 6.50 in assay [2]. In addition, the “selectivity (A1/A2a)” value in assay [1] is on record as 2.1.

As for `Nc1cc(C(=O)N(CC(F)(F)F)CC(F)(F)F)cc2nc(-c3ccc(Br)o3)nn12` [Example 311, 5-Amino-2-(5-bromo-furan-2-yl)-[1,2,4]triazolo[1,5-a]pyridine-7-carboxylic acid bis-(2,2,2-trifluoro-ethyl)-amide], in assay [1], the pKi is 7.59 and the “selectivity (A1/A2a)” value was 22.3. The compound also showed a pKi in assay [2] of 6.24.

For `Nc1cc(C(=O)N2CC=C(c3ccccc3)CC2)cc2nc(-c3ccc(Br)o3)nn12` [Example 312, [5-Amino-2-(5-bromo-furan-2-yl)-[1,2,4]triazolo[1,5-a]pyridin-7-yl]-(4-phenyl-3,6-dihydro-2H-pyridin-1-yl)-methanone], in assay [1], the pKi was 7.66 and the “selectivity (A1/A2a)” value is on record as 10.4. Besides, in assay [2], the pKi was 6.64.

On to `Nc1cc(C(=O)N(Cc2ccccc2)Cc2ccccc2)cc2nc(-c3ccc(Br)o3)nn12` [Example 313, 5-Amino-2-(5-bromo-furan-2-yl)-[1,2,4]triazolo[1,5-a]pyridine-7-carboxylic acid dibenzylamide], for which, in assay [1], the pKi is 8.92 and the “selectivity (A1/A2a)” value is on record as 14.8. The pKi in assay [2] was 7.75.
